Measured values published in patent US20080287396A1, “Phosphonated Fluoroquinolones, Antibacterial Analogs Thereof, and Methods for the Prevention and Treatment of Bone and Joint Infections” (TARGANTA THERAPEUTICA INC., priority 2005, published 2008).
In brackets after ≈: the same amount, converted by molar mass. Entries after “also recorded” stand apart in the source; their conditions may differ.

Experiments:
[1] = Regeneration of drug from bone powder-bound prodrug; assay type: in vitro ADME; conditions: for effect of the medium (presence or absence of serum) on regeneration rate: PBS vs serum
Procedure: Amounts of drug “regenerated” from the phosphonated parent prodrug were measured as follows. Washed bone powder-bound prodrugs from the above section were resuspended in 400 μL PBS or in 400 μL 50% (v/v in PBS) human or rat serum. […] Methanol (5× volume relative to supernatant) was added to each supernatant and the mixture was vortexed on a floor model vortex for 15 min to extract freed fluoroquinolone. The mixture was then centrifuged at 10 000 rpm for 15 min to pellet the insoluble material. The supernatant containing the extracted fluoroquinolone was recovered and evaporated to dryness in a speed vac. The dried pellets were resuspended in PBS and the amount of fluoroquinolone was determined by fluorescence measurements as described above. The percentage of drug regenerated was deduced from the difference between amount of bound prodrug and the amount of regenerated drug. The identity of regenerated drug was deduced by MIC determination; MICs of regenerated material matched those of parent drugs but not those of prodrugs.

[2] = Bone powder binding, fluorometric detection; conditions: for Binding to bone (%) Fluorescence: 1 mg/ml compound, bone meal powder 10 mg/ml in PBS, 37° C., 1 h
Procedure: (§1) The ability of the example molecules to bind to bone powder was established in two parallel fashions, using either LC/MS or fluorometric detection. For LC/MS detection, a stock solution (5 mM) of the compound to be tested was added to 0.1M Tris-HCl buffer pH 7, 0.15M NaCl to reach a final concentration of 100 μM. Triplicate samples (1 mL) of the compound solutions were intensively shaken for 10 min with or without 25 mg of fresh or 20 mg of vacuum dried ground rat tibia bone. The samples were then centrifuged for 15 min at 10 000 g. The presence of unbound compound was measured by injection of 30 μL of each of the supernatants into an Agilent 1100™ LC/UV system. For fluorometric detection, an individual compound was dissolved in PBS or water (compound 52) and resuspended at a concentration of 1 mg/ml in a slurry of bone meal powder (Now Foods, Bloomingdale, Ill., USA) in PBS at 10 mg/ml. The suspension of drug/prodrug in bone meal powder was incubated at 37° C. for 1 h to allow for binding, and centrifuged at 13 000 rpm for 2 min, before recovering the supernatant. The bone meal powder pellet was then washed three times with 1 ml of PBS. All supernatants were saved and assessed for fluoroquinolone content by fluorescence measurements at excitation/emission wavelengths of 280/465 nm. The amount of fluoroquinolone was determined from standard curves generated for each experiment. Amount of drug/prodrug bound to bone powder was deduced from the difference between the input amount (typically 1 mg) and the amount recovered in the supernatants after binding. In all binding experiments, >99% of input drug was recovered in the supernatant for the parent drugs.

[3] = tested on: S. aureus strains ATCC13709 and RN4220; assay: microbe, parasite or virus in culture; assay type: cell-based; conditions: Staphylococcus aureus, ATCC13709; CAMHB, 37° C., 18 h; data not shown; read-out: minimum inhibitory concentration (MIC)
Procedure: Susceptibility of S. aureus strains ATCC13709 and RN4220 to the commercial antibiotics and synthesized compounds was determined by following the guidelines set by the Clinical and Laboratory Standards Institute (formerly the National Committee for Clinical Laboratory Standards) (M26-A). Compounds were diluted two-fold serially in DMSO and transferred to cation-adjusted Mueller Hinton broth (CAMHB; Becton Dickinson). 50 μL of compounds diluted in CAMHB was mixed with 100 μL of bacteria diluted in CAMHB in 96-well microtiter plates. The final number of micro-organisms in the assay was 5×10^5 c.f.u. per mL and the final concentration of DMSO in the assay was 1.25%. Assays were set up in duplicate and incubated at 37° C. for 18 h. The concentration of compound that inhibited visible growth was reported as the minimum inhibitory concentration (MIC).

[4] = tested on: S. aureus ATCC 13709; assay: Prophylactic model of bone infection in rats; assay type: in vivo, rat; conditions: for prophylactic effect in rat model of bone infection, in words: Table 4 and FIGS. 6-8, doses as in Table 4; for bacterial titer compared with untreated group: 10 mg/kg IV 1 h after infection (positive control)
Procedure: To determine the activity in vivo of bisphosphonated prodrugs of fluoroquinolones, compounds 52 and 107, derivatives of parent compounds moxifloxacin 3 (for 52), and compounds 39, 44, 49, 54, 121, 129, 141, 145, 149, derivatives of parent compound gatifloxacin 15, were used in a prophylactic model for infection. Specifically, S. aureus ATCC 13709 cells were grown overnight at 37° C. in brain heart infusion broth (BHIB). Cells were subcultured into fresh BHIB and incubated for 4 to 5 h at 37° C. The cells were washed twice with phosphate-buffered saline (PBS) and resuspended in BHIB supplemented with 10% (vol./vol.) fetal bovine serum at a density of approximately 10^10 colony forming units (CFU)/ml (based upon turbidimetry). The suspension was aliquoted and a portion was used to check the CFU count. The culture was stored frozen (−80° C.) and was used without subculture. For use as an inoculum the culture was thawed, diluted in PBS and kept in an ice bath until it was used.
Animals were infected as described by O'Reilly et al. (Antimicrobial Agents and Chemotherapy (1992), 36(12): 2693-97) to generate the bone infection. Female CD rats (age, 57 to 70 days; n=5/group; Charles River, St-Constant, Canada) were anaesthetized by isofluorane before and during the surgery. Following complete induction of anesthesia, the rat was placed ventral side up and hair was shaved from the surgical site. The skin over the leg was cleaned and disinfected (proviodine-ethanol 70%). A longitudinal incision below the knee joint was made in the sagital plane. The incision was made over the bone below the “knee joint” (tibia head or condyle) but not completely extending to the ankle. A high speed drill fitted with a 2 mm bulb bit was used to drill a hole into the medullar cavity of the tibia. Rats were injected intra-tibially with 0.05 ml 5% sodium morrhuate (sclerosing agent) and then with 0.05 ml of S. aureus suspension (ca. 5×10^5 CFU/rat). The hole was sealed by applying a small amount of dry dental cement which immediately absorbs fluids and adheres to the site. The wound was closed using 3 metal skin clips. Moxifloxacin 3 (as a positive control) was injected once at 10 mg/kg intravenously 1 h postinfection in saline, while the fluoroquinolone prodrugs (prepared in 0.9% saline) were injected as a single intravenous bolus dose at different time points prior to the infection. For comparison, the parent drug (moxifloxacin 3 or gatifloxacin 15) was also injected intravenously once at a molar equivalent dose at the same time point prior the infection.
Infected rats were sacrificed by CO2 asphyxiation 24 h postinfection to monitor the bacterial CFU count. Infected tibiae were removed, dissected free of soft tissue, and weighed. The bones were ground using a metal ball mill, resuspended in 5 ml 0.9% NaCl, serially diluted and processed for quantitative cultures. For compounds 39, 44, 49, 54, 141, 145, 149, 1 ml of the 0.9% NaCl solution was added to 50 mg of charcoal before serial dilutions. Treatment efficacies were measured in terms of Log viable bacteria (Log CFU per gram of bone). The results obtained for each group of rats were evaluated by calculating the mean Log CFU and standard deviation. The limit of detection is 2 Log CFU/g of bone. Statistical comparisons of viable bacterial counts for the different treated and untreated groups were performed with Dunnett's multiple-comparison test. Differences were considered significant when the P value was <0.05 when comparing treated infected animals to the untreated infected ones.

[5] = Bone powder binding, LC/MS detection; conditions: 100 μM compound, Tris-HCl pH 7, 0.15M NaCl, ground rat tibia bone, 10 min
Procedure: as §1

[6] = tested on: Hela cells; assay: Cytotoxicity assay (MTS reduction); assay type: cell-based; conditions: concentrations up to 100 μM, 18 h, MTS reagent; data not shown
Procedure: Selected compounds were also tested for their ability to inhibit growth of mammalian cells so as to ascertain levels of cytotoxicity to the mammalian host, via an assay measuring the biological reduction of the inner salt of (3-(4,5-dimethylthiazol-2-yl)-5-(3-carboxymethoxyphenyl)-2-(4-sulfophenyl)-2H-tetrazolium (MTS reagent). Assays were performed in 96-well microtiter plates. Briefly, compounds at 100, 50, 25, and 12.5 μM concentrations were incubated with 2×10^4 Hela cells per well in Dulbecco's Modified Eagle Medium (Invitrogen Corporation) containing 1% Bovine Growth Serum (HyClone) for 18 h at 37° C. under 5% CO2.

[7] = 20 mg/kg IV, 3 days prior to infection

| Structure (SMILES) | effect of the medium (presence or absence of serum) on regeneration rate [1] | Binding to bone (%) Fluorescence [2] [%] | MIC [3] [µg/mL] | prophylactic effect in rat model of bone infection, in words [4] | cytotoxicity [6] | further results |
| --- | --- | --- | --- | --- | --- | --- |
| COc1c(N2CCN(C(=O)CC(C)(C)c3cc(P(=O)(O)CP(=O)(O)O)ccc3OC(C)=O)C(C)C2)c(F)cc2c(=O)c(C(=O)O)cn(C3CC3)c12 (stereo not drawn) [Compound 141] | fairly similar rates | 36.6 | 4 (≈ 5.32 µM) | efficient prophylactic effect |  | binding to osseous matter, in words ([2]; bisphosphonates bearing three hydroxy groups): less effectively bound; Measured bacterial titer (Log CFU/g of bone) Test compound ([4]; 45.4 mg/kg IV, 2 days prior to infection): 2.40 ± 0.44 Log CFU/g of bone |
| COc1c(N2CCNC(C)C2)c(F)cc2c(=O)c(C(=O)O)cn(C3CC3)c12 (stereo not drawn) [Compound 15, Gatifloxacin, reference compound] |  | 0 | 0.5 to 1 (≈ 1.33 to 2.66 µM) |  |  | prophylactic effect on bacterial titer ([4]; 10 mg/Kg (equivalent dose) 48 h prior to infection (FIG. 8)): without effect |
| COc1c(N2CCN(C(=O)OC(C)OC(=O)CCCC(P(=O)(O)O)P(=O)(O)O)C(C)C2)c(F)cc2c(=O)c(C(=O)O)cn(C3CC3)c12 (stereo not drawn) [Compound 44] | fairly similar rates | 88.4 | 1 to 8 (≈ 1.41 to 11.3 µM) | unable to produce a positive result in vivo |  | Measured bacterial titer (Log CFU/g of bone) Test compound [4, 7]: 4.72 ± 0.83 Log CFU/g of bone |
| COc1c(N2CCNC(C)C2)c(F)cc2c(=O)c(C(=O)OCCCCC(P(=O)(O)O)P(=O)(O)O)cn(C3CC3)c12 (stereo not drawn) [Compound 28, 5,5-bisphosphonopentyl 7-(3-methylpiperazin-1-yl)-1-cyclopropyl-6-fluoro-1,4-dihydro-8-methoxy-4-oxoquinoline-3-carboxylate] |  |  |  |  | no signs of any cytotoxicity | Binding to bone (%) LC/MS [5]: 91.9 ± 5.5% |
| COc1c(N2CCN(C(=O)OC(C)OC(=O)CCCC(=O)NC(P(=O)(O)O)P(=O)(O)O)C(C)C2)c(F)cc2c(=O)c(C(=O)O)cn(C3CC3)c12 (stereo not drawn) [Compound 39] | fairly similar rates | 94.3 |  | unable to produce a positive result in vivo | no signs of any cytotoxicity | Measured bacterial titer (Log CFU/g of bone) Test compound [4, 7]: 4.63 ± 0.39 Log CFU/g of bone |
| COc1c(N2C[C@@H]3CCCN[C@@H]3C2)c(F)cc2c(=O)c(C(=O)OCCCC(P(=O)(O)O)P(=O)(O)O)cn(C3CC3)c12 [Compound 14, 4,4-bisphosphonobutyl 7-((4aS,7aS)-octahydropyrrolo[3,4-b]pyridin-6-yl)-1-cyclopropyl-6-fluoro-1,4-dihydro-8-methoxy-4-oxoquinoline-3-carboxylate] |  | 93.8 |  |  | no signs of any cytotoxicity | drug released from the bone matter after 7 days of incubation, in words ([1]; medium not stated): signs of drug release |
| COc1c(N2CCNC(C)C2)c(F)cc2c(=O)c(C(=O)OCC(=O)Nc3ccc(CC(P(=O)(O)O)P(=O)(O)O)cc3)cn(C3CC3)c12 (stereo not drawn) [Compound 64, (4-(2,2-Bisphosphonoethyl)phenylcarbamoyl)methyl 7-(3-methylpiperazin-1-yl)-1-cyclopropyl-6-fluoro-1,4-dihydro-8-methoxy-4-oxoquinoline-3-carboxylate] | fairly similar rates | 88.9 |  |  | no signs of any cytotoxicity |  |
| COc1c(N2C[C@@H]3CCCN(CC(P(=O)(O)O)P(=O)(O)O)[C@@H]3C2)c(F)cc2c(=O)c(C(=O)O)cn(C3CC3)c12 [Compound 5, 7-((4aS,7aS)-1-(2,2-bisphosphonoethyl)-octahydropyrrolo[3,4-b]pyridin-6-yl)-1-cyclopropyl-6-fluoro-1,4-dihydro-8-methoxy-4-oxoquinoline-3-carboxylic acid] |  | 92.2 |  |  | no signs of any cytotoxicity | drug released from the bone matter after 24 h, in words ([1]; 24 h, medium not stated): not measurable amount of drug released; drug released from the bone matter after 7 days of incubation, in words ([1]; medium not stated): only trace amounts |
| COc1c(N2C[C@@H]3CCCN[C@@H]3C2)c(F)cc2c(=O)c(C(=O)O)cn(C3CC3)c12 [Compound 3, Moxifloxacin, reference compound] |  | 0 | 0.5 to 1 (≈ 1.25 to 2.49 µM) |  |  | bacterial titer compared with untreated group [4]: significant decrease in the bacterial titer; bacterial titer compared with untreated group ([4]; listed as moxifloxacin 3): significant (p<0.05) decrease in bacterial titer; also recorded: significant (p-value ≦0.0002) decrease in bacterial titer; prophylaxis by the parent drug, in words ([4]; used five or two days prior to infection): unable to exhibit such efficient prophylaxis |
